# Source: patent US7411064B2, “1-Heterocyclylalkyl-3-sulfonylazaindole or -azaindazole derivatives as 5-hydroxytryptamine-6 ligands” (Wyeth, priority 2002, dated 2008)
# pKi: −log10 of the molar value. Where a name gives a salt, the structure may show the parent alone.
# Legend:
# [1] = target: human cloned 5-HT6 receptors (Homo sapiens, UniProt P50406)
# Sequence of human cloned 5-HT6 receptors (P50406 whole entry): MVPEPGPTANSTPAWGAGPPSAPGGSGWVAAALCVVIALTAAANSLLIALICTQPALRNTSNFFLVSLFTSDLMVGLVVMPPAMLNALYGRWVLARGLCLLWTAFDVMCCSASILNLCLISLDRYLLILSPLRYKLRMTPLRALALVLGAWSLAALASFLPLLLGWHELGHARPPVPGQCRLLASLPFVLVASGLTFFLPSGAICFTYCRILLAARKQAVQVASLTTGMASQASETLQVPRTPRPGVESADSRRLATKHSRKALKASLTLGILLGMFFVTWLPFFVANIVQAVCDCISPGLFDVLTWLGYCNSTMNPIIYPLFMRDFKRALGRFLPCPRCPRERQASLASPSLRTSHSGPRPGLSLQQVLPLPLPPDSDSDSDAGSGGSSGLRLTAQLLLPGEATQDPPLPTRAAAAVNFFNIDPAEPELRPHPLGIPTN
Structure (SMILES),pKi [1],melting point [°C]
"O=S(=O)(c1ccccc1)c1cn(C[C@@H]2CCCN2)c2ncccc12 [Example 4, 3-(Phenylsulfonyl)-1-[(2S)-pyrrolidin-2-ylmethyl]-1H-pyrrolo[2,3-b]pyridine Hydrochloride]",7.18,–
CN1CCCC1Cn1cc(S(=O)(=O)c2cccc(F)c2)c2cccnc21 (stereo not shown) (as salt: hydrochloride) [Example 12],–,208 to 209
O=S(=O)(c1cn(CC2CCCN2)c2ncccc12)c1c(Cl)nc2sccn12 (stereo not shown) (as salt: hydrochloride) [Example 14],–,246 to 247
CN1CCCC1Cn1cc(S(=O)(=O)c2cccc(F)c2)c2cccnc21 (stereo not shown) [Example 12],8.22,–
"CN1CCCC1Cn1cc(S(=O)(=O)c2cccc(Cl)c2)c2cccnc21 (stereo not shown) [Example 8, 3-(3-Chlorophenylsulfonyl)-1-[(1-methylpyrrolidin-2-yl)methyl]-1H-pyrrolo[2,3-b]pyridine Hydrochloride]",8.15,–
O=S(=O)(c1cccc(F)c1)c1cn(CC2CCCN2)c2ncccc12 (stereo not shown) [Example 11],8.05,–
O=S(=O)(c1cn(CC2CCCN2)c2ncccc12)c1c(Cl)nc2sccn12 (stereo not shown) [Example 14],8.70,–
O=S(=O)(c1cccc(F)c1)c1cn(CC2CCCN2)c2ncccc12 (stereo not shown) (as salt: hydrochloride) [Example 11],–,181 to 182
O=S(=O)(c1ccc(Cl)s1)c1cn(CC2CCCN2)c2ncccc12 (stereo not shown) [Example 15],8.15,–
O=S(=O)(c1ccc(Cl)s1)c1cn(CC2CCCN2)c2ncccc12 (stereo not shown) (as salt: hydrochloride) [Example 15],–,106 to 107

# Continued, values first:
pKi [1],melting point [°C],Structure (SMILES)
7.92,–,"O=S(=O)(c1ccccc1)c1cn(C[C@H]2CCCN2)c2ncccc12 [Example 3, 3-(Phenylsulfonyl)-1-[(2R)-pyrrolidin-2-ylmethyl]-1H-pyrrolo[2,3-b]pyridine Hydrochloride]"
–,128 to 129,O=S(=O)(c1cccc(F)c1)c1cn(CC2CCCN2Cc2ccccc2)c2ncccc12 (stereo not shown) (as salt: hydrochloride) [Example 10]
6.79,–,O=S(=O)(c1ccccc1)c1cn(CC2CCCN2Cc2ccccc2)c2ncccc12 (stereo not shown) [Example 9]
–,218 to 220,O=S(=O)(c1ccccc1)c1cn(CC2CCCN2Cc2ccccc2)c2ncccc12 (stereo not shown) (as salt: hydrochloride) [Example 9]
6.76,–,O=S(=O)(c1cccc(F)c1)c1cn(CC2CCCN2Cc2ccccc2)c2ncccc12 (stereo not shown) [Example 10]
6.88,–,"O=S(=O)(c1cccc(Cl)c1)c1cn(CC2CCCN2Cc2ccccc2)c2ncccc12 (stereo not shown) [Example 6, 1-[(1-Benzylpyrrolidin-2-yl)methyl]-3-(3-chlorophenylsulfonyl)-1H-pyrrolo[2,3-b]pyridine]"
7.24,102 to 103,O=S(=O)(c1cn(CC2CCCN2Cc2ccccc2)c2ncccc12)c1c(Cl)nc2sccn12 (stereo not shown) [Example 13]
8.52,–,"O=S(=O)(c1cccc(Cl)c1)c1cn(CC2CCCN2)c2ncccc12 (stereo not shown) [Example 7, 3-(3-Chlorophenylsulfonyl)-1-(pyrrolidin-2-ylmethyl)-1H-pyrrolo[2,3-b]pyridine]"
